Laboratory results taken from PubChem BioAssay (NCI).
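The compound was tested at five concentrations on cells cultured in 96-well plates, with a 48-hour exposure period. TGI denotes the concentration required for complete inhibition of growth.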

Assays:
Test in all cases: growth of human tumour cells (NCI), 48 h
[1] = test system: HS 578T breast
[2] = test system: SF-539 CNS
[3] = test system: UACC-257 melanoma
[4] = test system: PC-3 prostate
[5] = test system: SN12C renal
[6] = test system: SF-268 CNS
[7] = test system: M14 melanoma
[8] = test system: RXF 393 renal
[9] = test system: TK-10 renal
[10] = test system: SK-MEL-2 melanoma
[11] = test system: 786-0 renal
[12] = test system: NCI-H460 lung
[13] = test system: CCRF-CEM leukemia
[14] = test system: OVCAR-3 ovarian
[15] = test system: KM12 colon
[16] = test system: UACC-62 melanoma
[17] = test system: HCT-116 colon
[18] = test system: RPMI-8226 leukemia
[19] = test system: MCF7 breast

SMILES	TGI [1] [µM]	TGI [2] [µM]	TGI [3] [µM]	TGI [4] [µM]	TGI [5] [µM]	TGI [6] [µM]	TGI [7] [µM]	TGI [8] [µM]	TGI [9] [µM]	TGI [10] [µM]	TGI [11] [µM]	TGI [12] [µM]	TGI [13] [µM]	TGI [14] [µM]	TGI [15] [µM]	TGI [16] [µM]	TGI [17] [µM]	TGI [18] [µM]	TGI [19] [µM]
Cc1cccc(NC(=O)O/N=C(\Cl)C(C)C)c1	63.7	20.3	31.5	30.9	10.3	38	16.4	26.9	27.3	32.6	4.12	33.2	3.9	11.4	36	29.6	11.4	10.5	28
CCOC(=O)c1nc2ccccc2nc1NCc1ccc(OC)c(OC)c1	> 100	> 100	> 100	> 100	> 100	> 100	–	> 100	> 100	–	> 100	> 100	> 100	> 100	> 100	> 100	> 100	> 100	> 100
COc1ccc2c(c1)c1c(n2CCN2CCOCC2)-c2cccc(OC)c2CC1	> 100	> 100	> 100	> 100	> 100	> 100	> 100	> 100	> 100	> 100	> 100	> 100	56.8	> 100	53.1	> 100	> 100	68.1	77.3
CCCN(CCC)C(=S)N/N=C(/C)c1ccccc1O	> 100	19.4	27.6	> 100	26	> 35.6	18.8	> 87.1	66.4	60.9	26.7	13.3	> 33.9	14.9	> 100	15.1	18.4	> 57.7	> 43.6
Cc1cc(S(=O)(=O)Nc2nnc3c4ccccc4cnn23)c(S)cc1Cl	> 89	> 95	> 100	> 100	> 100	> 100	> 100	> 100	> 100	> 100	> 100	> 85.1	> 100	> 100	> 100	> 100	> 100	> 100	> 100
COc1cccc2c1C1(O)C2CCCCCCCCCC12OCCCO2 (centres undefined)	> 100	> 100	> 100	> 100	> 100	> 100	> 100	> 100	> 100	> 73.2	> 100	> 59.5	> 92.4	> 81	> 100	> 100	> 100	> 80.1	> 100
O/N=C(/C(Cl)=C(Cl)Cl)C(Cl)Cl	61.3	44.9	40.6	33.9	34.1	36.3	40.8	30.5	34.7	–	34	> 100	36.7	38.6	47.4	77.2	34.8	50.2	60.7
CNCCCNC(=S)Cn1cc(C)c(=O)[nH]c1=O	> 75.5	> 60.9	> 59.4	> 100	> 100	> 100	> 69.6	> 95.5	> 100	> 74.4	> 100	> 67.3	> 50	> 100	> 78.8	> 63.5	> 68	> 100	> 92.5
O=C(CC(O)(C(F)(F)F)C(F)(F)Cl)CC(O)(C(F)(F)F)C(F)(F)Cl (centres undefined)	6.69	> 10	4.59	7.37	9.8	> 10	> 10	6.58	9.9	4.15	> 10	8.85	> 10	9.14	> 10	> 10	5.31	> 10	> 10
CC(=O)c1c(SCCN2CCOCC2)n(-c2ccccc2)c(=S)n(-c2ccccc2)c1=O	> 100	43.9	29.2	32	34.4	39.7	30.2	25.7	31.2	39.4	26.4	60.7	32.5	29.3	> 54.8	29.5	30.5	> 29.4	5.31
COC(=O)c1c(C)[nH]c2c1C(=O)C(=O)c1nc(C)c(C)nc1-2	58.6	24.8	24.6	29.3	12.8	23.6	27	13.4	9.68	16.3	25.9	> 100	35.7	23.3	37.1	18.9	18.2	47.3	24.8
O=C(O)c1nc2ccc(Cl)cc2[nH]c1=O	> 100	> 100	> 100	> 100	> 100	> 100	> 100	> 100	> 100	> 100	> 100	> 100	> 100	> 100	> 100	> 100	> 100	> 100	> 100
O=C(/C=C/c1ccc(OCc2ccccc2)cc1)NCc1ccc(C(=O)NCCc2c[nH]c3ccccc23)cc1	29.9	11.2	> 100	55	> 100	52.4	> 62	24.9	> 43	> 82.6	16.7	> 100	> 100	> 100	> 100	51.7	> 100	> 100	> 100
